Measurements as given in publication PMC8066102, “Metabolic Profiles of New Unsymmetrical Bisacridine Antitumor Agents in Electrochemical and Enzymatic Noncellular Systems and in Tumor Cells” (Pharmaceuticals, 2021).

Assays:
[1] = system: rat liver microsomes, P450-RLMs Dex-induced; test: Metabolism with rat liver microsomes (Dex-induced P450-RLMs); format: in vitro ADME; settings: 0.05 mM compound, 2 mM NADPH; for conversion rate: 2 mg/mL Dex-induced P450-RLMs, 30 min; for substrate consumption: Dex-induced P450-RLMs, 10 min
Protocol: The initial studies on drug metabolism of new UAs were performed with rat liver microsomes under the optimal conditions. HEPES buffer (0.1 M) at pH 7.4 with 2 mM NADPH and 0.05 mM UAs (C-2028 and C-2045) were selected.
UT-RLMs (2 mg/mL) and P450-RLMs induced with Dex, 3MC, or PB and recombinant P4502C19 and P4503A4 (1 mg/mL) were assayed for activity toward tested UAs as follows. The proteins were incubated in a buffer containing 0.1 M HEPES (pH 7.4), 2 mM MgCl2 with 0.05 mM substrate in total volume 70 µL. Substrates were added also in buffer HEPES, pH 7.4. Reactions were started by the addition of NADPH (2 mM) and were incubated for specified time at 37 °C. The reactions were stopped by the addition of 8.75 µL of 1 M HCl, followed by centrifugation at 13,400 rpm for 10 min to pellet the denatured protein. The supernatant fractions were used for high-performance liquid chromatography (HPLC) analysis. Control reactions omitting substrate were run with each assay. All incubations were performed in two repetitions.

[2] = system: HCT-116-UGT1A10 cells; test: Drug metabolism in HCT-116 cells transfected with UGT1A10; format: cell-based, human; settings: HCT-116 overexpressing UGT1A10, 50 μM, medium and cell extract, 24 and 72 h
Protocol: To analyze the transformation products of UAs in colon tumor cell lines, HCT-116 or HT-29 cells were plated in 60 mm Petri dishes; after reaching 80% of confluence, cells were treated with 5/25/50 μM of C-2028, C-2045 or C-2053 (prepared as 10 or 2 mM stock solutions in water) for specified time. Half of medium was added to acetonitrile (1:1, v/v), centrifuged (12 min, 13,400 rpm, 4 °C) and the supernatant was analyzed by HPLC (post-culture medium). Cells remaining on the Petri dishes were collected by gentle scraping, sedimented, washed with ice-cold PBS, suspended in ice-cold chloroform and lysed by sonication for 15 min. After 1 h on ice, insoluble material was removed by centrifugation at 13,000 rpm for 20 min at 4 °C. The sediment was discarded and supernatant (chloroform) were evaporated under pressure. Then, sample was suspended in ice-cold 60% methanol and directly analyzed by HPLC (cell extract).

[3] = Differential pulse voltammetry on glassy carbon electrode; format: physicochemical; settings: 0.5–20 µM, 0.02 M borate buffer with 0.15 M NaCl, pH 7.4, glassy carbon electrode, vs Ag/AgCl/3 M KCl
Protocol: To minimize the effects of electrode absorption processes on the current signals, differential pulse voltammetry (DPV) was applied in the positive potential range. […] This behavior was not observed in the case of C-2045, where only one anodic signal at a potential of approximately 0.52 V was observed over the entire studied concentration range (0.5–20 µM). The linear dependency, I = f (cUAs), confirmed that the obtained anodic current signals can be used for analytical purposes; however, the signal of C-2028 was linear over a narrower concentration range than in the case of C-2045.
Cyclic voltammetry (CV) and differential pulse voltammetry (DVP) were performed in 0.02 M borate buffer with 0.15 M NaCl, in water pH 7.4. with Autolab, model PGSTAT 12 potentiostat equipped with an ECD amplifier module (RC time settings: 0.0 s for scan rates > 10 mV/s and 0.1 s for scan rates < 10 mV/s). The voltammetric measurements were done in the three-electrode system consisting of the working electrode (glassy carbon electrode, GCE; ϕ = 3 mm; BAS Instruments), the reference electrode (Ag/AgCl/3 M KCl) and a platinum wire as the auxiliary electrode. Before each experiment the surface of working electrode was polished with 1 μm Al2O3 powder on a wet pad. After each polishing, to remove alumina completely from the electrode surface, the surface was rinsed with direct stream of ultrapure water. […]

[4] = target: T1, UGT2B7 (Homo sapiens, UniProt P16662); test: Modulation of UGT2B7 activity (epirubicin glucuronidation); format: in vitro ADME; settings: epirubicin substrate
T1 construct: purchased Corning, NY, USA (through DIAG-MED, Poland); host or cells: baculovirus-insect cells (Supersomes)
T1 sequence (P16662 24-529): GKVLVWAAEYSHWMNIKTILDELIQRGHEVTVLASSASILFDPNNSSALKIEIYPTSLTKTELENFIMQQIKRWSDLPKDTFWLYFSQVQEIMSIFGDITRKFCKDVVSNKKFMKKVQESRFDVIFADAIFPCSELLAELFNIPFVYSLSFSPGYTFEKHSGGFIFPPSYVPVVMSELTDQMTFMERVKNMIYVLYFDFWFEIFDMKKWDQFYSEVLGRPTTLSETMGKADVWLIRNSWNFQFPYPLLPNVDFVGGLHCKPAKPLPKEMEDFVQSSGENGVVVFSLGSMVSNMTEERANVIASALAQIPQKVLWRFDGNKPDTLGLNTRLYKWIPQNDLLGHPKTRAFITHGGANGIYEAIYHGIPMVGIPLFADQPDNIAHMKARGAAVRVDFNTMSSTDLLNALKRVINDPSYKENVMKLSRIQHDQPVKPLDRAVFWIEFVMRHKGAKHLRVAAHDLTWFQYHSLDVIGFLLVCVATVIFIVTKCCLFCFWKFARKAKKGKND
Protocol: Isoenzyme activity was studied by the rate measurement of β-hydroxylation of testosterone (specific substrate for P4503A4) and of glucuronidation of specific substrates, namely, SN-38 (UGT1A1), EPI (UGT2B7),) and TFK (UGT2B15). All substrate and drug solutions were prepared as 10 mM stock solutions in DMSO and were diluted in […] (pH 7.4). The mixture containing isoenzymes P4503A4/UGT (0.5 mg/mL), probe substrate (0.1 mM), cofactor 2 mM NADPH/5 mM UDPGA and the increasing concentrations of tested UA (0, 0.01, 0.02 and 0.05 mM) was incubated in the reaction buffer containing (i) for P4503A4 0.1 M HEPES, 88 mM MgCl2 and (ii) for UGT 0.1 M HEPES, 88 mM MgCl2, 25 μg/mL alamethicin at 37 °C for 30 min and were terminated by adding 8.75 µL of 0.1 M HCl. The samples were placed in ice for 10 min and centrifuged (10 min, 13,400 rpm). Supernatant fractions were analyzed by HPLC. For more accurate investigation of P4503A4 inhibition by C-2045 and C-2053 the β-hydroxylation rate was measured at various concentrations of testosterone: 0.02, 0.05, 0.1 and 0.2 mM. The inhibitor (UA) concentrations were 0, 0.001, 0.005 and 0.01 mM, whereas the incubation time 30 min and concentration of P4503A4 (0.5 mg/mL).

Structure (SMILES)	conversion rate [1]	substrate consumption [1]	metabolite formation in cells [2]	DPV anodic signal potential [3]	decrease in the activity of UGT2B7 ([4]; 0.01 mM and 0.02 mM compound)	inhibition at 30 min, 0.05 mM ([4]; human, UGT2B7 isoenzyme preparation, pH 7.4, probe epirubicin (EPI), 0.05 mM compound)
Cc1ccc([N+](=O)[O-])c2c(NCCCN(C)CCCNc3ccc4ncn5c6ccc(O)cc6c(=O)c3c45)c3ccccc3nc12 [C-2045]	80%	not metabolized	metabolized the substrate to the derivative, which was found in the cell medium rather than in the cell extract	approximately 0.52 V		
CN(CCCNc1c2ccccc2nc2cccc([N+](=O)[O-])c12)CCCNc1ccc2ncn3c4ccccc4c(=O)c1c23 [C-2028]	100%	completely consumed			60%	90%
